# In EPA's ToxRefDB 2:
# Legend:
# mouse [1] = settings: Subchronic oral toxicity in rodents, other, Feed, dose end: 90 day, group: systemic, systemic / in life observation / clinical signs / aggressive behavior + systemic / in life observation / clinical signs / irritability + …
# rat [2] = settings: Combined chronic toxicity/carcinogenicity, sprague dawley, Oral, Feed, dose end: 2 year, group: systemic
# rat [3] = settings: Subchronic oral toxicity in rodents, sprague dawley, Feed, dose end: 13 week, group: systemic
# dog [4] = settings: Chronic toxicity; beagle; Oral; Capsule; dose end: 52 week; group: systemic; systemic / in life observation / clinical signs / excitation + systemic / in life observation / clinical signs / hypersensitivity + systemic…
# dog [5] = settings: Subchronic oral toxicity in nonrodent, beagle, Capsule, dose end: 13 week, group: systemic
# mouse [6] = settings: Carcinogenicity, cd1, Oral, Feed, dose end: 78 week, group: systemic
# mouse [7] = settings: Subchronic oral toxicity in rodents, cd1, Feed, dose end: 13 week, group: systemic
# rat [8] = settings: Prenatal developmental toxicity study, sprague dawley, Oral, Gavage/Intubation, dose end: 15 GD
# rat [9] = settings: Sub-acute repeat dose toxicity; sprague dawley; Oral; Gavage/Intubation; dose end: 1 month; group: systemic; systemic / clinical chemistry / cholesterol / cholesterol + systemic / clinical chemistry / globulins / globulins + systemic / hematology / …
# rabbit [10] = settings: Prenatal developmental toxicity study, new zealand white, Oral, Gavage/Intubation, dose end: 19 GD
# rabbit [11] = settings: Prenatal developmental toxicity study, new zealand white, Oral, Gavage/Intubation, dose end: 19 GD; remark: listed apart in the source
# rat [12] = settings: Prenatal developmental toxicity study; sprague dawley; Oral; Gavage/Intubation; dose end: 17 GD; group: maternal; reproductive / reproductive performance / estrous cycle / corpora lutea + reproductive / reproductive performance / postimplantation loss / …
# rat [13] = settings: Developmental neurotoxicity study; fischer; Injection; Intraperitoneal; dose end: 30 PND; group: cannot be grouped; systemic / in life observation / body weight / offspring (pup) weight
# dog [14] = settings: Chronic toxicity; beagle; Oral; Feed; dose end: 52 week; group: systemic; systemic / clinical chemistry / bilirubin / total bilirubin + systemic / hematology / erythrocyte (rbc) count differential / erythrocyte (…
# mouse [15] = settings: Subchronic oral toxicity in rodents, cd1, Feed, dose end: 90 day, group: systemic
# rat [16] = settings: Combined chronic toxicity/carcinogenicity, sprague dawley, Oral, Feed, dose end: 24 month, group: systemic
# rat [17] = settings: Subchronic oral toxicity in rodents, sprague dawley, Feed, dose end: 13 week, group: systemic; remark: listed apart in the source
# dog [18] = settings: Subchronic oral toxicity in nonrodent, beagle, Feed, dose end: 90 day, group: systemic
# mouse [19] = settings: Carcinogenicity, cd1, Oral, Feed, dose end: 18 month, group: systemic
# rat [20] = settings: Multigenerational reproductive toxicity study, sprague dawley, Oral, Feed, dose end: 2 generation
# rat [21] = settings: Chronic toxicity, sprague dawley, Oral, Gavage/Intubation, dose end: 53 week, group: systemic
# rat [22] = settings: Prenatal developmental toxicity study; sprague dawley; Oral; Gavage/Intubation; dose end: 20 GD; group: maternal; systemic / in life observation / body weight / body weight gain
# rat [23] = settings: Subchronic oral toxicity in rodents, fischer, Feed, dose end: 13 week, group: systemic
# mouse [24] = settings: Subchronic oral toxicity in rodents, b6c3f1, Feed, dose end: 13 week, group: systemic, systemic / in life observation / body weight / body weight gain
# [25] = systemic / clinical chemistry / albumin / albumin + systemic / clinical chemistry / albumin-globulin ratio / albumin-globulin ratio + …
# [26] = systemic / organ weight / brain / relative to body weight + systemic / organ weight / spleen / absolute + systemic / organ weight / thyroid …
# [27] = systemic / clinical chemistry / urea nitrogen / urea nitrogen + systemic / clinical chemistry / aspartate aminotransferase (ast/sgot) / …
# [28] = systemic / in life observation / body weight / body weight gain + systemic / in life observation / clinical signs / anorexia
# [29] = systemic / in life observation / body weight / body weight gain + systemic / in life observation / clinical signs / anorexia + systemic / in…
# [30] = systemic / organ weight / liver / relative to body weight + systemic / pathology microscopic / liver / vacuolization + systemic / in life …
# [31] = systemic / in life observation / body weight / body weight gain
# [32] = systemic / pathology microscopic / liver / hypertrophy + systemic / pathology microscopic / liver / vacuolization cytoplasmic
# [33] = group: developmental, developmental / developmental malformation / bone / incomplete ossification + systemic / in life observation / body weight / fetal weight
# [34] = group: maternal, systemic / in life observation / body weight / body weight gain + systemic / in life observation / food consumption / food consumption + …
# [35] = group: developmental, developmental / developmental malformation / bone / domed head + developmental / developmental malformation / brain / hydrocephaly + …
# [36] = group: maternal, systemic / in life observation / clinical signs / discharge on cageboard + systemic / in life observation / food consumption / food …
# [37] = group: developmental, developmental / developmental malformation / bone / domed head + developmental / developmental malformation / bone / fused + developmental…
# [38] = group: maternal, systemic / in life observation / body weight / body weight gain + systemic / in life observation / clinical signs / defecation + systemic / …
# [39] = systemic / in life observation / body weight / body weight gain + systemic / clinical chemistry / alkaline phosphatase (alp/alk) / alkaline …
# [40] = systemic / hematology / erythrocyte (rbc) count differential / erythrocyte (rbc) + systemic / hematology / hematocrit (hct) / hematocrit (…
# [41] = systemic / hematology / erythrocyte (rbc) count differential / erythrocyte (rbc) + systemic / hematology / hemoglobin (hgb) / hemoglobin (…
# [42] = systemic / hematology / heinz body / heinz body + systemic / hematology / hematocrit (hct) / hematocrit (hct) + systemic / hematology / …
# [43] = systemic / urinalysis / appearance and color / appearance and color
# [44] = systemic / in life observation / mortality / mortality
# [45] = group: offspring, developmental / offspring survival late / viability index / viability index
# [46] = group: parental, systemic / pathology microscopic / spleen / pigmentation
# [47] = group: parental, systemic / pathology microscopic / spleen / pigmentation + systemic / in life observation / body weight / body weight + systemic / in life …
# [48] = group: reproductive, reproductive / offspring survival early / birth index / live birth index
# [49] = systemic / clinical chemistry / alkaline phosphatase (alp/alk) / alkaline phosphatase (alp/alk) + systemic / clinical chemistry / aspartate …
# [50] = systemic / hematology / monocytes / monocytes + systemic / in life observation / clinical signs / salivation
# [51] = systemic / in life observation / body weight / body weight gain + systemic / pathology microscopic / bone marrow / depletion + systemic / …
# [52] = systemic / in life observation / body weight / body weight gain + systemic / pathology microscopic / bone marrow / hyperplasia + systemic / …
smiles,measurement,setting,value
N#Cc1nn(-c2c(Cl)cc(C(F)(F)F)cc2Cl)c(N)c1S(=O)C(F)(F)F (stereo unspecified) [Fipronil],LEL,mouse [1],0.32 mg/kg/day
same,LOAEL,mouse [1],0.32 mg/kg/day
same,NEL,mouse [1],0.08 mg/kg/day
same,NOAEL,mouse [1],0.08 mg/kg/day
same,LOAEL,rat [2]; [25],0.059 mg/kg/day
same,NOAEL,rat [2]; [25],0.019 mg/kg/day
same,LEL,rat [2]; [26],0.019 mg/kg/day
same,NEL,rat [2]; [26],< 0.019 mg/kg/day
same,LOAEL,rat [3]; systemic / clinical chemistry / protein / protein,1.93 mg/kg/day
same,NOAEL,rat [3]; systemic / clinical chemistry / protein / protein + systemic / clinical chemistry / albumin-globulin ratio / albumin-globulin ratio + …,0.33 mg/kg/day
same,LEL,rat [3]; [27],0.07 mg/kg/day
same,NEL,rat [3]; [27],< 0.07 mg/kg/day
same,LEL,dog [4],2 mg/kg/day
same,LOAEL,dog [4],2 mg/kg/day
same,NEL,dog [4],0.2 mg/kg/day
same,NOAEL,dog [4],0.2 mg/kg/day
same,LEL,dog [5]; [28],2 mg/kg/day
same,LOAEL,dog [5]; [28],2 mg/kg/day
same,NEL,dog [5]; [29],0.5 mg/kg/day
same,NOAEL,dog [5]; [29],0.5 mg/kg/day
same,LEL,mouse [6]; systemic / organ weight / liver / relative to body weight,0.055 mg/kg/day
same,LOAEL,mouse [6]; [30],1.18 mg/kg/day
same,NEL,mouse [6]; [30],0.011 mg/kg/day
same,NOAEL,mouse [6]; [30],0.055 mg/kg/day
same,LOAEL,mouse [7]; [31],3.2 mg/kg/day
same,NOAEL,mouse [7]; systemic / in life observation / body weight / body weight gain + systemic / organ weight / liver / absolute + systemic / organ weight / …,1.27 mg/kg/day
same,LEL,mouse [7]; [32],0.13 mg/kg/day
same,NEL,mouse [7]; [32],< 0.13 mg/kg/day
same,LOAEL,"rat [8]; group: developmental, developmental / developmental malformation / bone / incomplete ossification",2.5 mg/kg/day
same,LEL,rat [8]; [33],2.5 mg/kg/day
same,NEL,rat [8]; [33],1 mg/kg/day
same,NOAEL,rat [8]; [33],1 mg/kg/day
same,LEL,rat [8]; [34],2.5 mg/kg/day
same,LOAEL,rat [8]; [34],2.5 mg/kg/day
same,NEL,rat [8]; [34],1 mg/kg/day
same,NOAEL,rat [8]; [34],1 mg/kg/day
CC(=O)NC1(c2cccc(F)c2)CCN(CC[C@@]2(c3ccc(Cl)c(Cl)c3)CN(c3ccccc3)C(=O)CO2)CC1.O=C(O)CCC(=O)O,LEL,rat [9],200 mg/kg/day
same,LOAEL,rat [9],200 mg/kg/day
same,NEL,rat [9],30 mg/kg/day
same,NOAEL,rat [9],30 mg/kg/day
same,LEL,rabbit [10]; [35],1000 mg/kg/day
same,LOAEL,rabbit [10]; [35],1000 mg/kg/day
same,NEL,rabbit [10]; [35],500 mg/kg/day
same,NOAEL,rabbit [10]; [35],500 mg/kg/day
same,LEL,rabbit [10]; [36],1000 mg/kg/day
same,LOAEL,rabbit [10]; [36],1000 mg/kg/day
same,NEL,rabbit [10]; [36],500 mg/kg/day
same,NOAEL,rabbit [10]; [36],500 mg/kg/day
same,LEL,rabbit [11]; [37],1000 mg/kg/day
same,LOAEL,rabbit [11]; [37],1000 mg/kg/day
same,NEL,rabbit [11]; [37],200 mg/kg/day
same,NOAEL,rabbit [11]; [37],200 mg/kg/day
same,LEL,rabbit [11]; [38],1000 mg/kg/day
same,LOAEL,rabbit [11]; [38],1000 mg/kg/day
same,NEL,rabbit [11]; [38],200 mg/kg/day
same,NOAEL,rabbit [11]; [38],200 mg/kg/day
same,LEL,rat [12],500 mg/kg/day
same,LOAEL,rat [12],> 1500 mg/kg/day
same,NEL,rat [12],< 500 mg/kg/day
same,NOAEL,rat [12],≥ 1500 mg/kg/day
CN=C1CN(O)C(c2ccccc2)=c2cc(Cl)ccc2=N1 [Chlordiazepoxide],LEL,rat [13],1 mg/kg/day
same,LOAEL,rat [13],> 1 mg/kg/day
same,NEL,rat [13],< 1 mg/kg/day
same,NOAEL,rat [13],≥ 1 mg/kg/day
CCc1ccc(C(=O)NN(C(=O)c2cc(C)cc(C)c2)C(C)(C)C)cc1 [Tebufenozide],LEL,dog [14],7 mg/kg/day
same,LOAEL,dog [14],7 mg/kg/day
same,NEL,dog [14],1.6 mg/kg/day
same,NOAEL,dog [14],1.6 mg/kg/day
same,LEL,mouse [15]; [31],35.3 mg/kg/day
same,LOAEL,mouse [15]; [31],35.3 mg/kg/day
same,NEL,mouse [15]; [39],3.4 mg/kg/day
same,NOAEL,mouse [15]; [39],3.4 mg/kg/day
same,LOAEL,rat [16]; [40],48 mg/kg/day
same,NOAEL,rat [16]; [40],5 mg/kg/day
same,LEL,rat [16]; systemic / pathology gross / ovary / cyst,6 mg/kg/day
same,NEL,rat [16]; systemic / pathology gross / ovary / cyst + systemic / organ weight / adrenal gland / relative to body weight + systemic / organ weight / …,0.6 mg/kg/day
same,LOAEL,rat [17]; [41],133 mg/kg/day
same,NEL,rat [17]; [41],1.3 mg/kg/day
same,NOAEL,rat [17]; [41],13.1 mg/kg/day
same,LEL,rat [17]; systemic / organ weight / testes / relative to body weight,13.1 mg/kg/day
same,LOAEL,dog [18]; [42],20.1 mg/kg/day
same,NOAEL,dog [18]; [42],2.1 mg/kg/day
same,LEL,dog [18]; [43],2.1 mg/kg/day
same,NEL,dog [18]; [43],< 2.1 mg/kg/day
same,LEL,mouse [19]; [44],0.8 mg/kg/day
same,NEL,mouse [19]; [44],< 0.8 mg/kg/day
same,LOAEL,mouse [19]; systemic / in life observation / mortality / mortality + systemic / pathology microscopic / spleen / pigmentation + systemic / organ weight…,78 mg/kg/day
same,NOAEL,mouse [19]; systemic / pathology microscopic / spleen / pigmentation + systemic / organ weight / spleen / absolute,7.8 mg/kg/day
same,LEL,rat [20]; [45],155 mg/kg/day
same,LOAEL,rat [20]; [45],> 155 mg/kg/day
same,NEL,rat [20]; [45],11.5 mg/kg/day
same,NOAEL,rat [20]; [45],≥ 155 mg/kg/day
same,LEL,rat [20]; [46],11.5 mg/kg/day
same,LOAEL,rat [20]; [46],11.5 mg/kg/day
same,NEL,rat [20]; [47],0.8 mg/kg/day
same,NOAEL,rat [20]; [47],0.8 mg/kg/day
same,LEL,rat [20]; [48],155 mg/kg/day
same,LOAEL,rat [20]; [48],155 mg/kg/day
same,NEL,rat [20]; [48],11.5 mg/kg/day
same,NOAEL,rat [20]; [48],11.5 mg/kg/day
CO[C@@H]1COCC[C@@H]1[NH2+][C@@H]1CC[C@@](C(=O)N2CCc3ncc(C(F)(F)F)cc3C2)(C(C)C)C1.O=C([O-])CCC(=O)O [MK-812],LOAEL,rat [21]; [49],> 80 mg/kg/day
same,NOAEL,rat [21]; [49],≥ 80 mg/kg/day
same,LEL,rat [21]; [50],5 mg/kg/day
same,NEL,rat [21]; [50],< 5 mg/kg/day
same,LEL,rat [22],30 mg/kg/day
same,LOAEL,rat [22],> 30 mg/kg/day
same,NEL,rat [22],10 mg/kg/day
same,NOAEL,rat [22],≥ 30 mg/kg/day
O=C1O[C@H]([C@@H](O)CO)C(O)=C1O [L-Ascorbic acid],LOAEL,rat [23]; [51],5000 mg/kg/day
same,NOAEL,rat [23]; [51],2500 mg/kg/day
same,LEL,rat [23]; [52],1250 mg/kg/day
same,NEL,rat [23]; [52],< 1250 mg/kg/day
same,LEL,mouse [24],7500 mg/kg/day
same,LOAEL,mouse [24],7500 mg/kg/day
same,NEL,mouse [24],3750 mg/kg/day
same,NOAEL,mouse [24],3750 mg/kg/day
